Earlier results on one compound are cited in US20050137198A1, “Stable hydrazalazine pharmaceutical compositions” (priority 2003, published 2005).

Read-outs that look alike come from different tables or passages of the source.

This series deals with vascular smooth muscle.

For the compound `NNc1nncc2ccccc12` [Hydralazine, 1-hydrazinophthalazine], the onset of action (given intravenously) was 10 to 20 min. For the setting “in vivo”, the duration of action was 3 to 4 h, the onset of action is 10 to 30 min and the “time of maximum hypotensive effect” value is 10 to 80 min.
